Assay results taken from patent publication US20240285808A1, “MOLECULAR PROBES FOR IN VIVO DETECTION OF ALDEHYDES” (The General Hospital Corporation, priority 2021, published 2024).
Several values for one entry are separate records, joined by “and”; a condition that tells them apart may be missing. Identical values can stand only once.

Legend:
[1] = system: lungs of bleomycin-injured mice; assay: MR imaging of lung in bleomycin lung fibrosis model; type: in vivo, mouse; conditions: for ΔLMR in lungs, pair-wise comparison: 60 min post injection, individual mice ID 1-6
Method: C57Bl/6 adult male mice at 8 weeks of age (Jackson Laboratories, Barr Harbor, ME) received a single intratracheal dose of bleomycin, 1 units/kg body weight (50 μL total volume) (Fresenius Kabi, Lake Zurich, Il) as previously described in Desogere, P., et al. Optimization of a Collagen-Targeted PET Probe for Molecular Imaging of Pulmonary Fibrosis. J Nuc Med 58, 1991-1996 (2017).
Pair-Wise Comparison Between Gd-CHyd and Gd-9 in Lung Fibrosis Model:
A series of baseline images were first acquired. […] Then anesthesia was removed, and the mouse was allowed to awake and return to cage. After 4 hours, the same mouse was anesthetized again.
Pair-wise comparison between Mn-15 and Mn-17 in lung fibrosis model: The bleomycin-injured mice were first randomly imaged with Mn-15 or Mn-17 and then 24 hours later same imaging protocol was performed in the same mice with the other probe.
Animals were anesthetized with isoflurane (1-2%) and placed in a specially designed cradle with body temperature maintained at 37° C. The inhaled isoflurane level was adjusted to maintain a respiration rate of 60±5 breaths per minute. The tail vein was cannulated for intravenous (i.v.) delivery of the contrast agent while the animal was positioned in the scanner. Imaging was performed at 4.7 T using a small bore animal scanner with a custom-built volume coil. Mice were imaged with a dose of 100 μmol/kg from 30 mM stock solution of Gd or Mn complex.
For lung imaging, images were acquired with following sequences and parameters: 3D Ultrashort TE (3D-UTE, TR/TE/FA=4 ms/11.75 μs/16°, 0.6 mm isotropic spatial resolution, field of view (FOV) 75 mm×75 mm, one average, acquisition time=6.1 min) images were acquired prior to and dynamically post injection of contrast agent; Rapid Acquisition with Relaxation Enhancement (RARE, TR/TE/FA=1.5 s/8 ms/180°, 0.3 mm isotropic spatial resolution, field of view (FOV) 60 mm×50 mm, four average, acquisition time=6.1 min) and T1-weighted 3D Fast Low Angle Shot (FLASH, TR/TE/FA=10 ms/2.5 ms/30°, 0.6 mm isotropic spatial resolution, field of view (FOV) 60 mm×50 mm, one average, acquisition time=6.1 min) images were also acquired.
A total of 6 lung ROIs were defined on axial UTE images to obtain signal intensity (SI); ROIs in the dorsal muscle in each slice were also defined as reference; ROIs in the field of view without any tissue (air) were used to measure the variation in background signal. Then the lung-to muscle ratio (LMR) or contrast to noise ratio (CNR) was averaged from the 6 slices to calculate changes in LMR (ΔLMR) or CNR (ΔCNR) at each time point.
Gd-9 is a Gd-DOTA derivative with two hydrazine arms synthesized by amide coupling of two tBu-piperazin-1-ylcarbamate groups to 1,4,7,10-tetraazacyclododecane-1,4-bis(tBu-acetate)-4,10-bis(glutaric acid 1-tBu ester), followed by acid deprotection and gadolinium complexation. C57Bl/6 adult male mice at 8 weeks of age received a single intratracheal dose of bleomycin, 1 U/kg body weight (50 μL total volume) as previously described. Pair-wise imaging study of GdCHyd and Gd-9 was carried out in mice at day 14 post bleomycin injury on a 4.7 T MRI with a dose of 100 μmol/kg of each probe. For the treatment study, mice were imaged first at day 10 post bleomycin injury, then treated daily with oral gavage of either epigallocatechin gallate (EGCG, 100 mg/kg) or PBS (vehicle) for 11 days. At day 21 post bleomycin injury, the animals were imaged again. MRI consisted of T1-weighted UTE (TR/TE/flip angle=4 ms/0.011 ms/15°) images acquired prior to and up to 30 minutes following intravenous administration of Gd-9 ([…]). Following the second imaging session, animals were euthanized (60 minutes post injection), and lung tissues were removed for further analysis.

[2] = Reaction rates with butyraldehyde by UV-visible measurements (Method D); type: physicochemical; conditions: for k (second order / condensation rate constant): Method d: butyraldehyde 1 mM, Mn complex 0.04-0.10 mM, 25° C., PBS, absorbance 220 nm
Method: Method D: Reaction Rates with UV-Visible Measurements.
The molar extinction coefficient at 220 nm (ε220) of Mn-15, Mn-16 and Mn-17 was calculated using Beer-Lambert Law: A220=ε220Cl; where A220 is the absorbance at wavelength 220 nm, C is the concentration (M), and l is the cell path length (cm).
The kinetics for reactions of Mn-15, Mn-16 and Mn-17 with butyraldehyde were monitored spectrophotometrically by measuring the change in absorbance at 220 nm. All reactions were carried out at 25° C. in PBS. In each experiment [butyraldehyde]=1 mM and the concentrations of Mn-complex, 0.04 mM, 0.06 mM, 0.08 mM, and 0.10 mM, were varied to estimate the rate law.
At the beginning of the reaction (t=0), the concentration of the starting Mn complex is a0 and the concentration of the aldehyde condensation product is zero. After time t the concentration of the product is x, and the concentration of remaining Mn complex starting material is a0-x. For a first-order reaction
where I is the constant of integration and kobs is the observed rate constant. The rate law and a corresponding second order rate constant k were estimated by plotting reaction velocity as a function of Mn—N(where Mn—N refers to Mn-15, Mn-16, or Mn-17) concentration.
The concentration of Mn—N-Ald (where Mn-Ald refers to the reaction product with either Mn-15, Mn-16, or Mn-17) can be estimated by the following equations, where A0 is the absorbance of Mn—N and A is the absorbance of reaction mixture after time t,
The novel Mn-PC2A derivatives (FIG. 1A) were synthesized in 6 steps from the pyclen macrocycle. Hydrazone formation kinetics with butyraldehyde as a model compound were measured by UV spectroscopy at 220 nm, 25° C., pH 7.4, PBS. Hydrazone hydrolysis kinetics were measured by HPLC with UV detection at 220 nm using excess formaldehyde to trap the liberated hydrazine and prevent the reverse reaction. Allysine-modified BSA (BSA-Ald, 17.4 mg/mL, […] aldehyde) as a soluble model protein or BSA (17.3 mg/mL, 16.8 μM aldehyde) and Mn-15 or Mn-17 (50-200 μM) were incubated at 37° C. for 3 hours, and 1/T1 was measured at 1.4 T, 37° C., and plotted vs concentration to obtain relaxivity. The protein bound probe was isolated by ultrafiltration and the relaxivity of the protein-bound fraction measured. All Mn concentrations were measured by ICP-MS. Liver fibrosis was induced in male C57BL/6 mice by oral gavage with CCl4 for 12 weeks, 2-3 times per week, while control mice received vehicle (olive oil). 3D FLASH images (TR/TE/FA=15 ms/2 ms/30°, 0.25 mm^3 spatial resolution) were acquired on a 4.7 T Bruker Biospec prior to and dynamically for 40 min p.i. of 100 μmol/kg Mn-15. Liver to muscle contrast to noise was calculated as CNR=(SILiver−SIMuscle)/SDAir where SI=signal intensity and SD=standard deviation in SI.

[3] = bleomycin injured mice (fibrotic lung)

Row | SMILES | Change in lung to muscle ratio (ΔLMR) ([1]; Bleomycin injured mice) | Change in lung to muscle ratio (ΔLMR) ([1]; Naïve mice) | Washout T1/2 in lungs ([1]; Naïve mice (normal lung)) [min] | Washout T1/2 in lungs [1, 3] | fold higher condensation (hydrazone formation) rate constant compared to Mn-17 [2] [fold] | k (second order / condensation rate constant) [2] [M⁻¹ s⁻¹] | ΔLMR in lungs, pair-wise comparison [1] | fold higher signal in fibrotic lung than GdCHyd ([1]; bleomycin day 14, pairwise study, same time point post injection) [fold] | ΔCNR of lung, pair-wise comparison ([1]; bleomycin injured mice, 25 min post injection, individual mice ID 1-4)
1 | CN(C)C(CCC(=O)NCCCN1CCN(CC(=O)[O-])Cc2cccc(n2)CN(CC(=O)[O-])CC1)C(=O)O.[Mn+2] (stereo not drawn) [Mn-18] | 0.04 | 0.01 | 15.7 ± 1.8 | 18.9 ± 2.0 min |  |  |  |  | 
2 | NNC(CCC(=O)NCCCN1CCN(CC(=O)[O-])Cc2cccc(n2)CN(CC(=O)[O-])CC1)C(=O)O.[Mn+2] (stereo not drawn) [Mn-15] | 0.13 | 0.00 | 13.7 ± 1.4 | 33.5 ± 5.1 min and 33.6 ± 5.1 min | 3 | 12.1 | 0.06 and 0.11 and 0.18 (2×) and 0.08 and 0.15 |  | 
3 | NOC(CCC(=O)NCCCN1CCN(CC(=O)[O-])Cc2cccc(n2)CN(CC(=O)[O-])CC1)C(=O)O.[Mn+2] (stereo not drawn) [Mn-16] | 0.18 | 0.00 | 17.9 ± 3.2 | >240 min |  | 2.5 |  |  | 
4 | NN1CCN(C(=O)CCC(C(=O)[O-])N2CCN(CC(=O)[O-])CCN(CC(=O)[O-])CCN(C(CCC(=O)N3CCN(N)CC3)C(=O)[O-])CC2)CC1.[Gd+3] (stereo not drawn) [Gd-9, cis-1,4-Gd-(CHyd)2] |  |  |  |  |  |  |  | 3 | 3.7 and 4.3 and 3.0 and 4.0
5 | NNCC(=O)NCCCN1CCN(CC(=O)[O-])Cc2cccc(n2)CN(CC(=O)[O-])CC1.[Mn+2] [Mn-17] | 0.15 | 0.00 | 15.1 ± 1.9 | 41.5 ± 6.3 min |  | 4.6 | 0.09 and 0.18 (2×) and 0.27 and 0.15 (2×) |  | 
